Test results: patent US7662810B2, “2-arylmethylazetidine carbapenem derivatives and preparation thereof” (Korea Research Institute of Chemical Technology, priority 2004, dated 2010)

What was measured:
[1] = biological target: T1, Dihydropeptidase-1 (DHP-1) (Sus scrofa, UniProt P22412)
T1 sequence (P22412 17-384): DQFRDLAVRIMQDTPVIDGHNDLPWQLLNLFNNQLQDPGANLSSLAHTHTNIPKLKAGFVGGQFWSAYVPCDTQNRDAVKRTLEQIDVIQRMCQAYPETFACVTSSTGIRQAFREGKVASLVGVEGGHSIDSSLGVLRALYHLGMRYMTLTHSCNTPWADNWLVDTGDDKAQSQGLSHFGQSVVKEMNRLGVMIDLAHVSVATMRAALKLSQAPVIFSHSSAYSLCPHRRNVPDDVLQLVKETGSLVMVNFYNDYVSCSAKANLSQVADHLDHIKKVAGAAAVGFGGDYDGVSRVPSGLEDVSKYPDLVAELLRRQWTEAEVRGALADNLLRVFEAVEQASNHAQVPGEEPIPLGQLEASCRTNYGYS

[2] = test system: Staphylococcus aureus 241; experiment: Measurement of Minimum Inhibitory Concentration (MIC), QRS; type: cell-based; conditions: QRS, Staphylococcus aureus 241
Protocol: (§1) The antibacterial activities of the compounds of the present invention prepared in the above Examples against Gram-positive and Gram-negative bacteria, MRSA and QRS were tested as follows.
(§2) Respective bacterial strains were inoculated into 3 ml of Fleisch extract broth (beef extract 1%, peptone 1%, NaCl 0.3%, Na2HPO4.12H2O 0.2%, pH 7.4-7.5. 10% horse serum was supplemented for Streptococcus pyogenes and S. facium) and cultured on a shaking incubator at 37° C. for 18 hours. About 10^4 CFU/spot of the cultured bacterial strains were inoculated onto Müller-Hinton agar plates containing serial double dilutions (final concentration of 0.002 to 100 μg/ml) of a test compound employing an automatic inoculator (Dynatech, USA), and incubated at 37° C. for 18 hours. When the incubation was completed, the minimum inhibitory concentration was determined. Meropenem (Yuhan corporation, Korea) and vancomycin (Cj Inco., Korea) were used as standard antibiotics, respectively.

[3] = test system: Staphylococcus epidermidis 178; experiment: as above; type: cell-based; conditions: QRS, Staphylococcus epidermidis 178
Protocol: as §1, §2

[4] = test system: Staphylococcus epidermidis 291; experiment: as above; type: cell-based; conditions: QRS, Staphylococcus epidermidis 291
Protocol: as §1, §2

[5] = test system: Staphylococcus aureus 179; experiment: as above; type: cell-based; conditions: QRS, Staphylococcus aureus 179
Protocol: as §1, §2

[6] = test system: Staphylococcus aureus 293; experiment: as above; type: cell-based; conditions: QRS, Staphylococcus aureus 293
Protocol: as §1, §2

[7] = test system: Staphylococcus aureus 208E; experiment: Measurement of Minimum Inhibitory Concentration (MIC), MRSA; type: cell-based; conditions: Staphylococcus aureus 208E
Protocol: as §1, §2

[8] = test system: Staphylococcus aureus 88E; experiment: as above; type: cell-based; conditions: Staphylococcus aureus 88E
Protocol: as §1, §2

[9] = test system: Staphylococcus aureus 256E; experiment: as above; type: cell-based; conditions: Staphylococcus aureus 256E
Protocol: as §1, §2

[10] = test system: Staphylococcus aureus 694E; experiment: as above; type: cell-based; conditions: Staphylococcus aureus 694E
Protocol: as §1, §2

[11] = test system: Staphylococcus aureus 697E; experiment: as above; type: cell-based; conditions: Staphylococcus aureus 697E
Protocol: as §1, §2

[12] = test system: Staphylococcus aureus 693E; experiment: as above; type: cell-based; conditions: Staphylococcus aureus 693E
Protocol: as §1, §2

[13] = test system: Staphylococcus aureus 690E; experiment: as above; type: cell-based; conditions: Staphylococcus aureus 690E
Protocol: as §1, §2

[14] = test system: Staphylococcus aureus 695E; experiment: as above; type: cell-based; conditions: Staphylococcus aureus 695E
Protocol: as §1, §2

[15] = test system: Staphylococcus aureus 121E; experiment: as above; type: cell-based; conditions: Staphylococcus aureus 121E
Protocol: as §1, §2

[16] = test system: Staphylococcus aureus 692E; experiment: as above; type: cell-based; conditions: Staphylococcus aureus 692E
Protocol: as §1, §2

[17] = Test of Pharmacokinetics in Animals (mice); type: in vivo; conditions: mouse, in vivo, 40 mg/kg
Protocol: The pharmacokinetics of the carbapenem derivatives of the present invention was determined using mice. […] Standard antibiotic samples were prepared by serial two-fold dilution with control blood. […] PK (pharmacokinetic) change indicators (AUC, Tmax, Cmax and T1/2) of the test compound concentration remaining in the mouse blood over time were assayed over a set period.

[18] = test system: Enterobacter cloacae 1321 E; experiment: Measurement of Minimum Inhibitory Concentration (MIC); type: cell-based
Protocol: as §1, §2

[19] = test system: Klebsiella aerogenes 1522 E; experiment: as above; type: cell-based
Protocol: as §1, §2

[20] = test system: Salmonella typhimurium 179; experiment: as above; type: cell-based; conditions: Salmonella typhimurium 179
Protocol: as §1, §2

[21] = test system: Klebsiella oxytoca 1082 E; experiment: as above; type: cell-based
Protocol: as §1, §2

[22] = test system: Staphylococcus aureus 285; experiment: as above; type: cell-based
Protocol: as §1, §2

[23] = test system: Escherichia coli TEM; experiment: as above; type: cell-based; conditions: Escherichia coli TEM
Protocol: as §1, §2

[24] = test system: Staphylococcus pyogenes 308A; experiment: as above; type: cell-based; conditions: Staphylococcus pyogenes 308A
Protocol: as §1, §2

[25] = test system: Staphylococcus faecium MD 8b; experiment: as above; type: cell-based; conditions: Staphylococcus faecium MD 8b
Protocol: as §1, §2

[26] = test system: Escherichia coli DC 2; experiment: as above; type: cell-based
Protocol: as §1, §2

[27] = test system: Enterobacter cloacae P 99; experiment: as above; type: cell-based
Protocol: as §1, §2

[28] = test system: Staphylococcus pyogenes 77A; experiment: as above; type: cell-based; conditions: Staphylococcus pyogenes 77A
Protocol: as §1, §2

[29] = test system: Staphylococcus aureus 503; experiment: as above; type: cell-based
Protocol: as §1, §2

[30] = test system: Escherichia coli 078; experiment: as above; type: cell-based
Protocol: as §1, §2

[31] = test system: Escherichia coli DC 0; experiment: as above; type: cell-based
Protocol: as §1, §2

[32] = test system: Escherichia coli 1507 E; experiment: as above; type: cell-based
Protocol: as §1, §2

[33] = biological target: T1, Dihydropeptidase-1 (DHP-1); experiment: Sensitivity Assay Against Dihydropeptidase-1 (DHP-1); conditions: pig, DHP-1 enzyme extracted from hog kidney

In the case of `C[C@@H](O)[C@H]1C(=O)N2C(C(=O)[O-])=C(SC3CN(Cc4ccccc4)C3)[C@H](C)[C@H]12.[K+]` [Exam. 13, Potassium(1R,5S,6S)-2-(1-benzyl-azetidine-3-yl-thio)-6-[(1R)-1-hydroxylethyl]-1-methylcarbapen-2-em-3-carboxylate], the “T1/2 (time when the concentration of the medicament become the half)” value [1] is reported as 19.28, the MIC [2] is reported as 0.049 µg/mL and the MIC [3] is reported as 0.391 µg/mL. For the same compound, the MIC [4] was 0.391 µg/mL, the MIC [5] was 0.049 µg/mL and the MIC [6] was 0.098 µg/mL. It also gave an MIC [7] of 0.049 µg/mL, an MIC [8] of 0.025 µg/mL and an MIC [9] of 0.013 µg/mL. For the same compound, the MIC [10] was 1.563 µg/mL, the MIC [11] was 0.025 µg/mL and the MIC [12] was 3.125 µg/mL. For the same compound, the MIC [13] was 0.391 µg/mL, the MIC [14] was 0.391 µg/mL and the MIC [15] was 0.025 µg/mL. For the same compound, the MIC [16] was 0.025 µg/mL, the “AUC, times higher than meropenem” value [17] was 10 to 12 times and the “increase in T1/2 than meropenem” value [17] was “more than 2 times”. The “AUC (area under blood-medicament concentration curve till 24 hours from administration)” value ([17]; po) was 1730 ng·h/mL, the Cmax ([17]; po) was 1060 ng/mL and the “T1/2 (half time of blood-medicament concentration)” value ([17]; po) was 48.6 min. The Tmax ([17]; po) was 29.4 min, the “absorption through the oral route” value ([17]; po) was “absorbed through the oral route to significant extents” and the “AUC (area under blood-medicament concentration curve till 24 hours from administration)” value ([17]; sc) was 94760 ng·h/mL. For the same compound, the Cmax ([17]; sc) was 86830 ng/mL, the “T1/2 (half time of blood-medicament concentration)” value ([17]; sc) was 55.2 min and the Tmax ([17]; sc) was 13.2 min. For the same compound, the MIC [18] was 0.049 µg/mL, the MIC [19] was 0.098 µg/mL and the MIC [20] was 0.049 µg/mL. The MIC [21] was 0.049 µg/mL, the MIC [22] was 0.025 µg/mL and the MIC [23] was 0.049 µg/mL. For the same compound, the MIC [24] was 0.002 µg/mL, the MIC [25] was 1.563 µg/mL and the MIC [26] was 0.025 µg/mL. It also gave an MIC [27] of 0.098 µg/mL, an MIC [28] of 0.002 µg/mL and an MIC [29] of 0.013 µg/mL. It also gave an MIC [30] of 0.049 µg/mL, an MIC [31] of 0.098 µg/mL and an MIC [32] of 0.049 µg/mL.

With `C[C@@H](O)[C@H]1C(=O)N2C(C(=O)O)=C(SCCN=CN)C[C@H]12` [Imipenem, imipenem] the half-life at 500 μg/ml [33] was 143 min.

For `C[C@@H](O)[C@H]1C(=O)N2C(C(=O)[O-])=C(SC3CN(Cc4ccc(F)cc4)C3)[C@H](C)[C@H]12.[K+]` [Exam. 19, Potassium(1R,5S,6S)-2-[1-(4-fluorobenzyl)-azetidine-3-yl-thio]-6-[(1R)-1-hydroxylethyl]-1-methylcarbapen-2-em-3-carboxylate], the “T1/2 (time when the concentration of the medicament become the half)” value [1] was 28.16, the MIC [2] was 0.049 µg/mL and the MIC [3] was 0.195 µg/mL. It also gave an MIC [4] of 0.391 µg/mL, an MIC [5] of 0.049 µg/mL and an MIC [6] of 0.195 µg/mL. The MIC [7] was 0.025 µg/mL, the MIC [8] was 0.049 µg/mL and the MIC [9] was 0.025 µg/mL. For the same compound, the MIC [10] was 3.125 µg/mL, the MIC [11] was 0.049 µg/mL and the MIC [12] was 3.125 µg/mL. The MIC [13] was 0.391 µg/mL, the MIC [14] was 0.195 µg/mL and the MIC [15] was 0.049 µg/mL. For the same compound, the MIC [16] was 0.025 µg/mL, the MIC [18] was 0.049 µg/mL and the MIC [19] was 0.098 µg/mL. For the same compound, the MIC [20] was 0.049 µg/mL, the MIC [21] was 0.049 µg/mL and the MIC [22] was 0.025 µg/mL. The MIC [23] was 0.049 µg/mL, the MIC [24] was 0.002 µg/mL and the MIC [25] was 1.563 µg/mL. The MIC [26] was 0.025 µg/mL, the MIC [27] was 0.098 µg/mL and the MIC [28] was 0.002 µg/mL. It also gave an MIC [29] of 0.013 µg/mL, an MIC [30] of 0.025 µg/mL and an MIC [31] of 0.098 µg/mL. It also gave an MIC [32] of 0.049 µg/mL.

With `COc1ccc(CN2CC(SC3=C(C(=O)[O-])N4C(=O)[C@H]([C@@H](C)O)[C@H]4[C@H]3C)C2)cc1OC.[K+]` [Exam. 17, Potassium(1R,5S,6S)-2-[1-(3,4-dimethoxybenzyl)-azetidine-3-yl-thio]-6-[(1R)-1-hydroxylethyl]-1-methylcarbapen-2-em-3-carboxylate] the “T1/2 (time when the concentration of the medicament become the half)” value [1] was 27.45, the MIC [2] was 0.195 µg/mL and the MIC [3] was 0.781 µg/mL. It also gave an MIC [4] of 1.563 µg/mL, an MIC [5] of 0.098 µg/mL and an MIC [6] of 0.391 µg/mL. The MIC [7] was 0.049 µg/mL, the MIC [8] was 0.195 µg/mL and the MIC [9] was 0.049 µg/mL. It also gave an MIC [10] of 0.098 µg/mL, an MIC [11] of 0.098 µg/mL and an MIC [12] of 0.391 µg/mL. It also gave an MIC [13] of 0.781 µg/mL, an MIC [14] of 0.098 µg/mL and an MIC [15] of 0.098 µg/mL. The MIC [16] was 0.195 µg/mL, the MIC [18] was 0.391 µg/mL and the MIC [19] was 0.391 µg/mL. It also gave an MIC [20] of 0.098 µg/mL, an MIC [21] of 0.098 µg/mL and an MIC [22] of 0.025 µg/mL. For the same compound, the MIC [23] was 0.391 µg/mL, the MIC [24] was 0.002 µg/mL and the MIC [25] was 1.563 µg/mL. It also gave an MIC [26] of 0.049 µg/mL, an MIC [27] of 0.781 µg/mL and an MIC [28] of 0.002 µg/mL. The MIC [29] was 0.013 µg/mL, the MIC [30] was 0.098 µg/mL and the MIC [31] was 0.781 µg/mL. The MIC [32] was 0.391 µg/mL.
